Literature values, collected in PMC7503629, “Synthesis and Biological Studies on Dinuclear Gold(I) Complexes with Di-(N-Heterocyclic Carbene) Ligands Functionalized with Carbohydrates” (Molecules, 2020).

Design: method as in doi:10.1002/ejic.201700768
Conditions: attributed to low mitochondrial penetration; cited from earlier work

For “[Au(magi)Cl] (magi = 1-methyl-3-(2,3,4,6-tetra-O-acetyl-β-D-glucopyranosyl)imidazole-2-ylidene)”, the “antiproliferative activity (in words)” value is listed as “inertness”.
